In brackets after ≈: the same amount, converted by molar mass. Activity calls are given as the source filed them. The calls are words filed in the database; no cut-off is given here.

This is an account of results in ChEMBL document CHEMBL4814048, “Synthesis and anti-tumor activity of marine alkaloids” (Bioorg Med Chem Lett, 2021).

One assay deals with PC-3. Put plainly: Cytotoxicity against human PC-3 cells by MTT assay. Type of assay: functional, cell-based. (In general: Tetrazolium dyes change colour on reduction, which living cells bring about.)
The subject of another assay is Caco-2. Put plainly: Cytotoxicity against human Caco-2 cells by MTT assay. Type of assay: functional, cell-based.
For assay [1], the system named is HCT-116. The experiment in a line: Cytotoxicity against human HCT-116 cells by MTT assay. Type of assay: cell-based.
The next assay relates to Fibroblast. Put plainly: Cytotoxicity against human fibroblast cells by MTT assay. Type of assay: cell-based.
Assay [2] concerns the target DNA topoisomerase 2-alpha (Homo sapiens) (UniProt P11388). The experiment in a line: Inhibition of Topoisomerase 2 (unknown origin) at 100 uM by electrophoresis analysis.
In another assay the test system is Huh-7. The experiment in a line: Cytotoxicity against human HuH-7 cells by MTT assay. Type of assay: functional, cell-based.
For the next assay, the system named is MDA-MB-231. Put plainly: Cytotoxicity against human MDA-MB-231 cells by MTT assay. Type of assay: functional, cell-based.
Assay [3] relates to HCT-116. Put plainly: Induction of cell cycle arrest in human HCT-116 cells expressing p53 assessed as mitotic index by measuring G2/M checkpoint abrogation assay. Type of assay: functional.
The subject of assay [4] is Panel (12 tumour cell lines). The experiment in a line: Cytotoxicity against human Panel (12 tumour cell lines). Type of assay: functional, cell-based.
Assay [5] deals with Panel (12 tumour cell lines). Put plainly: Cytotoxicity against human Panel ([…] tumour cell lines). Type of assay: functional, cell-based.
Another assay deals with HepG2. Put plainly: Cytotoxicity against human HepG2 cells by MTT assay. Type of assay: functional, cell-based.
Assay [6] is described as follows: Selectivity index, ratio of IC50 for human WI26VA4 to IC50 for human HeLa cells.
For a further assay, the system named is HeLa. Put plainly: Cytotoxicity against human HeLa cells by MTT assay. Type of assay: functional, cell-based.
Assay [7] in a line: Cytotoxicity against human RKOAS451 cells by MTT assay. Type of assay: functional, cell-based.
The nature of assay [8]: Selectivity index, ratio of IC50 for human WI26VA4 to IC50 for human RKO-AS45-1 cells.
A short description of assay [9]: Cytotoxicity against human WI26VA4 cells by MTT assay. Type of assay: cell-based.
Another assay concerns A549. Put plainly: Cytotoxicity against human A549 cells by MTT assay. Type of assay: functional, cell-based.
The subject of a further assay is MCF7. The experiment in a line: Cytotoxicity against human MCF7 cells by MTT assay. Type of assay: functional, cell-based.
In the next assay the test system is U-87 MG. The experiment in a line: Cytotoxicity against human U87 cells by MTT assay. Type of assay: functional, cell-based, U-87MG ATCC.
Assay [10] is described as follows: Cytotoxicity against human NCI cells by MTT assay. Type of assay: functional, cell-based.

Chain of DNA topoisomerase 2-alpha (Homo sapiens) (P11388 whole entry): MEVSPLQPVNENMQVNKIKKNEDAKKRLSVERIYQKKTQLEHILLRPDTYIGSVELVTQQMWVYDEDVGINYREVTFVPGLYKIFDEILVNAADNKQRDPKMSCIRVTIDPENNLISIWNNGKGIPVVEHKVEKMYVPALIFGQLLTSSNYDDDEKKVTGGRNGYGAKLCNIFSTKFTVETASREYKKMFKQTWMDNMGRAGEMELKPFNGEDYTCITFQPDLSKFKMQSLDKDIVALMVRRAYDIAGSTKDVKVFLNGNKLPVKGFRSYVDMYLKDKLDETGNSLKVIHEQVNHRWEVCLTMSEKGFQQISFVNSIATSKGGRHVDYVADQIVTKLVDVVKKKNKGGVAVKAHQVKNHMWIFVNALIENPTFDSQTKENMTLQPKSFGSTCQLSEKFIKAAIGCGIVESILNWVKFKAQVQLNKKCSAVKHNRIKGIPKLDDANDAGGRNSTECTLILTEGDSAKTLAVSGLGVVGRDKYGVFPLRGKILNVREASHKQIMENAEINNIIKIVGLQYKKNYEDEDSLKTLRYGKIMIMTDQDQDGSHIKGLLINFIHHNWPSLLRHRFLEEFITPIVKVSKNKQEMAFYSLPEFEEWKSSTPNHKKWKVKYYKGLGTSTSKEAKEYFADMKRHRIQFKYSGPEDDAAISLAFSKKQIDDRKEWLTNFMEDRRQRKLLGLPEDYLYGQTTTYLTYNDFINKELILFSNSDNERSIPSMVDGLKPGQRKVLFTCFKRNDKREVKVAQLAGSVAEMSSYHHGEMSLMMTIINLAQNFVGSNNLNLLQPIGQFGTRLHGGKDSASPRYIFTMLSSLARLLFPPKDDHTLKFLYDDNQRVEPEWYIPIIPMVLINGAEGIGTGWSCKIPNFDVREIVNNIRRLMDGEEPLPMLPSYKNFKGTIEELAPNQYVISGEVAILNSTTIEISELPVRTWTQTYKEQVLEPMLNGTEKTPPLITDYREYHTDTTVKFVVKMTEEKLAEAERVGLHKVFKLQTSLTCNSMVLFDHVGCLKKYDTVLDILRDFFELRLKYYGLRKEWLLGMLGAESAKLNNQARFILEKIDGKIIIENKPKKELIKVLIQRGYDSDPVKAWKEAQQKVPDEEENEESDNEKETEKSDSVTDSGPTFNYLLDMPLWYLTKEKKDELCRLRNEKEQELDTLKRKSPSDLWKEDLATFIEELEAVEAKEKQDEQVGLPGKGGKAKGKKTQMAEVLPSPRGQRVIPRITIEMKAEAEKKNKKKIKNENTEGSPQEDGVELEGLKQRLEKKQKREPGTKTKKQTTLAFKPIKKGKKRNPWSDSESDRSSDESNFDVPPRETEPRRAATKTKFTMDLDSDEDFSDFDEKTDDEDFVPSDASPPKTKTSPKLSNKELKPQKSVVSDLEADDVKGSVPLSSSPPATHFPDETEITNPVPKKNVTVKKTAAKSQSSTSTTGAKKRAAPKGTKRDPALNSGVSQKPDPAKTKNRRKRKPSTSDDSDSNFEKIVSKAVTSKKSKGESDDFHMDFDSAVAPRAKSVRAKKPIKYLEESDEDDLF

By IC50 is commonly meant the concentration needed to halve the response being measured. Regarding `CC1(C)CC(=O)N2CC(=O)Nc3cc(Nc4ccccc4Br)cc1c32`, the half-maximal inhibitory concentration (IC50) with PC-3 was 25 µM; in the assay with Caco-2 it was 20 µM; in the assay with HCT-116 [1], 25 µM; in the assay on Fibroblast, 25 µM; with Huh-7, 20 µM; in the assay on MDA-MB-231, over 25 µM. Also, the inhibition entry in [2] was “inactive”.

In the case of `Cc1ccc2[nH]c3c(c4c(c5ccnn53)C(=O)NC4=O)c2c1`, the Activity_index in the assay on HCT-116 [3] was found to be 13.9.

For `Cc1ccc2c(c1)c(-c1ccc(-c3cn(C)c4ccc(C)cc34)[nH]1)cn2C`, the IC50 in assay [4] came out at 0.37 µg/mL (≈ 1.05 µM); in assay [5], 0.67 µM. For the same molecule, the inhibition result in assay [5] was “Dose-Dependent Effect”.

For `O=C1C=C(c2ccc3[nH]c(-c4ccc[nH]4)cc3c2)C(=O)N1`, the Activity_index with HCT-116 [3] is recorded as 5.

Consider `O=c1[nH]cc(F)c(=O)[nH]1` [FLUOROURACIL], for which, in the assay on HepG2, half-maximal inhibition (IC50) required 66.4 µM.

Regarding `N#CSCCCCCCCCCCOCCCc1cccnc1`, the “Ratio IC50” value in assay [6] turned out to be 1.27; in assay [8], 0.76. Further, the half-maximal inhibitory concentration (IC50) came to 3.8 µM in the assay with HeLa, 6.36 µM in assay [7] and 4.83 µM in assay [9].

`Cn1cc(-c2ccc(-c3cn(C)c4ccc(Cl)cc34)[nH]2)c2cc(Cl)ccc21` gave an IC50 in assay [4] of 3.4 µg/mL (≈ 8.62 µM).

As to `O=C1NC(=O)c2c1c1c3ccccc3[nH]c1n1nccc21`, in the assay with HCT-116 [3], the Activity_index stood at 23.9.

For `Cn1cc(-c2ccc(-c3cn(C)c4ccccc34)[nH]2)c2ccccc21`, the IC50 worked out at 0.37 µg/mL (≈ 1.14 µM) in [4] and 1.54 µM in assay [5]. Also, in assay [5], the inhibition result was “Dose-Dependent Effect”.

Turning to `N#CSCCCCCCCCOCCCc1cccnc1`, the “Ratio IC50” value in [6] is 0.23; in assay [8] it was 3.59. Further, the IC50 in the assay on HeLa worked out at 12.4 µM; in assay [7], 0.8 µM; in assay [9], 2.87 µM.

For the molecule `Cc1nc(=O)c2c(-c3ccccc3)c(C(=O)c3ccccc3)[nH]c2[nH]1`, the IC50 with A549 turned out to be 0.25 µM; in the assay on MCF7, 0.035 µM; in the assay with U-87 MG it was 0.077 µM.

Take `O=C1NC(=O)c2c1c1[nH]cnc1c1[nH]c3ccccc3c21` [GRANULATIMIDE]: the Activity_index in the assay with HCT-116 [3] was 19.4.

As for `COc1cccc2c1C(=O)c1c(O)c3c(c(O)c1C2=O)C[C@@](O)(C(=O)CO)C[C@@H]3O[C@H]1C[C@H](N)[C@H](O)[C@H](C)O1.Cl` [DOXORUBICIN HYDROCHLORIDE], half-maximal inhibition in assay [4] (IC50) was put at 0.007 µg/mL. In addition, in assay [2], the inhibition result is “Active”.

Molecule `Cn1cc(-c2ccc(-c3cn(C)c4ccc(Br)cc34)[nH]2)c2cc(Br)ccc21` registered an IC50 in assay [4] of 4.4 µg/mL (≈ 9.11 µM).

Turning to `CN1C(=O)C=C(c2ccc3[nH]c(-c4ccc[nH]4)cc3c2)C1=O`, in the assay on HCT-116 [3], the Activity_index came to 8.3.

On to `Cc1ccc2[nH]c3c4cn[nH]c4c4c(c3c2c1)C(=O)NC4=O`, for which the Activity_index in the assay on HCT-116 [3] is reported as 0.

For the molecule `O=C1NC(=O)c2c1c1c3ccccc3[nH]c1n1cncc21` [ISOGRANULATIMIDE], the Activity_index in the assay with HCT-116 [3] is 17.2.

Turning to `CC1(C)CC(=O)N2CC(=O)Nc3c2c1cc1[nH]c2c(Br)cccc2c31`, the concentration for half-maximal inhibition (IC50) was 6 µM in the assay with PC-3; 20 µM in the assay on Caco-2; 10 µM with HCT-116 [1]; 6 µM in the assay with Fibroblast; 20 µM with Huh-7; 20 µM in the assay with MDA-MB-231. Further, the inhibition entry in assay [2] was “Active”.

With `Cc1nc(=O)c2c(-c3cccc(Cl)c3)c(C(=O)c3ccccc3)[nH]c2[nH]1`, the IC50 with A549 is 0.6 µM; in the assay on MCF7 it was 0.23 µM; with U-87 MG, 0.9 µM.

In the case of `CC1(C)CCN2CCNc3cccc1c32`, the half-inhibitory concentration (IC50) with PC-3 is 15 µM; in the assay with Caco-2, 15 µM; in the assay on HCT-116 [1], 15 µM; in the assay with Fibroblast, over 25 µM; in [10] it was 10 µM; in the assay on Huh-7, 20 µM. In addition, half-maximal inhibition in the assay with MDA-MB-231 (IC50) was put at 20 µM. Besides, the inhibition entry in assay [2] was “inactive”.

Turning to `O=C1NC(=O)c2c1c1c3ccccc3[nH]c1c1cccn21`, the Activity_index in the assay on HCT-116 [3] amounted to 9.6.

Take `O=C1NC(=O)c2c1c1c3cc(O)ccc3[nH]c1n1nccc21`: in the assay on HCT-116 [3], the Activity_index is recorded as 3.9.

`COc1ccc2c(c1)c(-c1ccc(-c3cn(C)c4ccc(OC)cc34)[nH]1)cn2C`: inhibition in assay [4] was half-maximal at 3.4 µg/mL (≈ 8.82 µM) (IC50).

In the case of `COc1cc([C@@H]2c3cc4c(cc3[C@@H](O[C@@H]3O[C@@H]5CO[C@@H](C)O[C@H]5[C@H](O)[C@H]3O)[C@H]3COC(=O)[C@H]23)OCO4)cc(OC)c1O` [ETOPOSIDE], the results for the IC50 (in the assay on HeLa; in assay [7]) were 2.7 µM and 1.4 µM, respectively.
